Here are results for five molecules from publication PMC3483245, “Optimization of a direct spectrophotometric method to investigate the kinetics and inhibition of sialidases” (BMC Biochemistry, 2012).

Entries after “also recorded” stand apart in the source; their conditions may differ.

Assay [1] concerns pneumococcal sialidases. More on the design: method as in PMID 18835278. Particulars: buffer substance; cited from earlier work.
Assay [2] concerns the target T1, NanA (Streptococcus pneumoniae, UniProt P62576). The experiment in a line: biochemical. The class given is biochemical. Particulars: for inhibition of NanA (in words): modified direct method.
In assay [3] the target is T2, NanC (Streptococcus pneumoniae, UniProt A0A0H2UQE4). The experiment in a line: biochemical.
T2 sequence (A0A0H2UQE4 entry or part of it): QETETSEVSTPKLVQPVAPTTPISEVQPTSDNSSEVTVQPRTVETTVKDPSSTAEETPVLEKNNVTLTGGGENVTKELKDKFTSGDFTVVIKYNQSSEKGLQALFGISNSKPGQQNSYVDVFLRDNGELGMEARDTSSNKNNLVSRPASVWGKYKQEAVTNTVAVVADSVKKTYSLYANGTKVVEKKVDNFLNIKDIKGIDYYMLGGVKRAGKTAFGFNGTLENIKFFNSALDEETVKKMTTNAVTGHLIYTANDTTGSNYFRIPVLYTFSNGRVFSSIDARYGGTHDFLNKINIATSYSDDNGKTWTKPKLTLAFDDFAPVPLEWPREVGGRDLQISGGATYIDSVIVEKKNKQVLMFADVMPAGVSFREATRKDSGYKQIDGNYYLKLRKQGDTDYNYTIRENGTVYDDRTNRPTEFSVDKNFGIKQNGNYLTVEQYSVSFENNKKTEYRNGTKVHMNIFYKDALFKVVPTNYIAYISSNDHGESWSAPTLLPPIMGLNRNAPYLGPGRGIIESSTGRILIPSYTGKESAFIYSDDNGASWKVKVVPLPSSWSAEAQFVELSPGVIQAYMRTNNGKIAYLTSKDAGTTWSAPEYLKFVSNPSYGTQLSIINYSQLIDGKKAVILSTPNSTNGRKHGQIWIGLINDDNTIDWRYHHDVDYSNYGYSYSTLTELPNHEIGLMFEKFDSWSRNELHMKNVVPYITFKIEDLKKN
Assay [4] concerns the target T3, NanB (Streptococcus pneumoniae serotype 4, UniProt Q54727). In words: biochemical.
For assay [5], the target named is T1, NanA. In words: Hydrolysis of p-NP-Neu5Ac by NanA, direct spectrophotometric method. The format is biochemical. Conditions: 30°C, 20 mM MES pH 6.0, 400 nm.
Assay [6] concerns the target T2, NanC. The experiment in a line: Hydrolysis of p-NP-Neu5Ac by NanC, direct spectrophotometric method. Particulars: 30°C, 20 mM MES pH 6.0, 400 nm. The class given is biochemical.
The target in assay [7] is T1, NanA. In words: Hydrolysis of p-NP-Neu5Ac by NanA, conventional indirect spectrophotometric method. The class given is biochemical. Conditions: 37°C, stopped with 0.5 M Na2CO3 pH 9.0, 405 nm. As to the method:
(§1) The activity of the sialidases was assayed colorimetrically and fluorometrically using the substrates p-NP-Neu5Ac (Sigma, St. Louis, Miss) and 4MU-Neu5Ac (Sigma, St- Louis, Miss), respectively. Conventional indirect assays were performed as previously described. Briefly, the reaction mixtures containing the substrates and up to 100 nM sialidase were incubated at 37°C and stopped by the addition of 0.5 M Na2CO3 pH 9.0 for the colorimetric assay or 0.25 M glycine pH 10.0 for the fluorimetric assay. Released p-NP was detected spectrophometrically at 405 nm. The fluorescence associated with the release of 4-MU was measured at the excitation wavelength of 365 nm and an emission wavelength of 445 nm. These measurements were performed using an EnVision microplate reader (Perkin Elmer, Waltham, Mass.).

Assay [8] has as its target T3, NanB. The experiment in a line: Hydrolysis of p-NP-Neu5Ac by NanB, conventional indirect spectrophotometric method. The format is biochemical. Particulars: 37°C, stopped with 0.5 M Na2CO3 pH 9.0, 405 nm. As to the method:
as §1

The target in assay [9] is T2, NanC. The experiment in a line: Hydrolysis of p-NP-Neu5Ac by NanC, conventional indirect spectrophotometric method. The class given is biochemical. Particulars: 37°C, stopped with 0.5 M Na2CO3 pH 9.0, 405 nm. As to the method:
as §1

The test system of assay [10] is NanB. Particulars: direct method, 30°C, 20 mM MES pH 6.0, 400 nm.
Where [11] appears, read: first order kinetics up to 500 μM substrate.
[12] abbreviates: first order kinetics up to 1,200 μM substrate.

T3 sequence (Q54727 30-697): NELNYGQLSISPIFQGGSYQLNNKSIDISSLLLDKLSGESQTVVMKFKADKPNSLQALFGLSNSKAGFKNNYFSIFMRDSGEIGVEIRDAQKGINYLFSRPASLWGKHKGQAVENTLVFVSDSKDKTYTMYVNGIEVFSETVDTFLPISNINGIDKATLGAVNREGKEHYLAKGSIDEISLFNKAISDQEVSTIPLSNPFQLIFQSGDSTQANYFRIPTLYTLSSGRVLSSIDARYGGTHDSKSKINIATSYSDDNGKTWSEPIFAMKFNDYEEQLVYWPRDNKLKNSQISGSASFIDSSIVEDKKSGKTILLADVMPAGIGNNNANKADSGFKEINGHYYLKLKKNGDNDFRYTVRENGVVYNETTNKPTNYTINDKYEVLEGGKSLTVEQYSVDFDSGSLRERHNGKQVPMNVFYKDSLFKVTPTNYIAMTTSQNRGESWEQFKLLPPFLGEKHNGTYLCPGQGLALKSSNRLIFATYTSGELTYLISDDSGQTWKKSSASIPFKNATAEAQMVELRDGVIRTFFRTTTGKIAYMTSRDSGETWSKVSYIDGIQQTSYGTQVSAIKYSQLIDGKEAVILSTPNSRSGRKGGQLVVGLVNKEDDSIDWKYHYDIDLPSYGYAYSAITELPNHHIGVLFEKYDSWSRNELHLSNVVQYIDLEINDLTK
T1 sequence (P62576 54-1035): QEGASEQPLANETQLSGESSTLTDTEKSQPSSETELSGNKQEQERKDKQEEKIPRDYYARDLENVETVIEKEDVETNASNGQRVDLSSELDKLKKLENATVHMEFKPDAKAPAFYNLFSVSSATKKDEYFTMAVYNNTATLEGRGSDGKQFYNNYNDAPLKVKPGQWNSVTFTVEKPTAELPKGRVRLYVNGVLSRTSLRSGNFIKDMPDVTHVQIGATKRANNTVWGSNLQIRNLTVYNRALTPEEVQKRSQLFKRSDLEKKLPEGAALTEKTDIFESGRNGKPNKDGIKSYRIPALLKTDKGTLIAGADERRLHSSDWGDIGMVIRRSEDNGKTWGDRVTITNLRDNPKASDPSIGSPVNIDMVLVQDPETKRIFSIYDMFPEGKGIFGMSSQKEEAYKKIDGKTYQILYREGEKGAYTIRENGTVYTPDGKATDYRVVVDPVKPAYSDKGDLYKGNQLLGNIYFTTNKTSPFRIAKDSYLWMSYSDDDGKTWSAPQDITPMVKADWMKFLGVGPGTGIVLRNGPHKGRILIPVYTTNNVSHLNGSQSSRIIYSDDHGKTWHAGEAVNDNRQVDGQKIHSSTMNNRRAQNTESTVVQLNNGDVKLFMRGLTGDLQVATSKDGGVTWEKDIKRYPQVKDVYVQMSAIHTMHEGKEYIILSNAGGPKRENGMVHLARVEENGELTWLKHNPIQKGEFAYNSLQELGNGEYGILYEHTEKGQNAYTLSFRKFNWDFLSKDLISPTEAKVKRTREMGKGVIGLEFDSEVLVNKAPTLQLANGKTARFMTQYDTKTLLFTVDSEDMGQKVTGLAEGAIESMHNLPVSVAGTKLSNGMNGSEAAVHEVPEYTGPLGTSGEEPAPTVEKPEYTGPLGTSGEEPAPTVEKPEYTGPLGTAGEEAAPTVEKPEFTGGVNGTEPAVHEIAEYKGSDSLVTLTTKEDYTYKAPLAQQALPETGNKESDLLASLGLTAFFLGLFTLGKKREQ

As for `O=S(=O)(O)CCNC1CCCCC1` [CHES, 2-n-cyclohexylamino ethane sulfonic acid], the “inhibition of pneumococcal sialidases (in words)” value in assay [1] is listed as “weak inhibitor”.

Consider `CC(=O)N[C@H]1[C@H]([C@H](O)[C@H](O)CO)OC(C(=O)O)=C[C@@H]1O` [Neu5Ac2en, 2-deoxy-2,3-didehydro-N-acetylneuraminic acid], for which the “inhibition of NanA (in words)” value in assay [2] was “significant inhibition; also recorded: inhibition constants in the micromolar range”. This molecule also registered an inhibition constant Ki in [3] of 2010 µM.

Consider `CCC(CC)O[C@@H]1C=C(C(=O)O)C[C@H](N)[C@H]1NC(C)=O` [Oseltamivir carboxylate], for which the Ki in assay [2] is 1.77 µM; in [4], more than 7500 µM; in [3], more than 7500 µM. Moreover, the “inhibition of NanA (in words)” value in [2] is “significant inhibition; also recorded: inhibition constants in the micromolar range”.

As to `CC(=O)N[C@H]1[C@H]([C@H](O)[C@H](O)CO)OC(C(=O)O)=C[C@@H]1N=C(N)N` [Zanamivir], the values for the Ki in assay [2], in assay [4] and in [3] were 720 µM, more than 7500 µM and more than 7500 µM, respectively. The “inhibition of NanA (in words)” value in [2] is “Very limited inhibitory effects”.

Regarding `CC(=O)N[C@H]1[C@H]([C@H](O)[C@H](O)CO)OC(Oc2ccc([N+](=O)[O-])cc2)(C(=O)O)C[C@@H]1O` (some centres unmarked) [p-NP-Neu5Ac, 2-O-(p-nitrophenyl)-N-acetylneuraminic acid], the “k cat / K m” value in assay [5] is recorded as “(3.5 ± 0.3) × 10^5 M^-1·s^-1”; in assay [6] it was “(3.4 ± 0.3) × 10^4 M^-1·s^-1”; in assay [7], “(8.4 ± 0.9) × 10^4 M^-1·s^-1”; in assay [8] it was “(1.1 ± 0.1) × 10^2 M^-1·s^-1”; in [9], “(1.2 ± 0.1) × 10^4 M^-1·s^-1”; in [10], “(2.7 ± 0.3) × 10^2 M^-1·s^-1”. Besides, the K m in [5] (setting [11]) was more than 500 µM; in assay [6] (setting [11]) it was more than 500 µM; in assay [7] (setting [12]), >1,100 μM; in assay [8] (setting [12]), >1,200 μM; in assay [9] (setting [12]), more than 700 µM; in assay [10] (setting [11]) it was more than 500 µM. Moreover, the k cat in assay [5] (setting [11]) is more than 175 s⁻¹; in assay [6] (setting [11]), more than 17 s⁻¹; in assay [7] (setting [12]), more than 490 s⁻¹; in [8] (setting [12]), more than 11 s⁻¹; in assay [9] (setting [12]), more than 11 s⁻¹; in assay [10] (setting [11]) it was more than 0.14 s⁻¹.

One may read the Ki as the dissociation constant of the complex between target and ligand, obtained from inhibition or displacement.
